PubChem BioAssay AID1902 (Broad Institute, 2009)
Active and inactive are the calls of the source.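 How the source made its calls: active means EC50 no more than a set limit of log units above the highest dose; inactive means the rest.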

What follows are compounds tested against S. pyogenes SKKanGAS, kanamycin survival, BacTiterGlo, 6 h (assay: S. pyogenes SKKanGAS kanamycin growth inhibitors – SKKanGAS strain, luminescence, dose confirmation, streptokinase promoter inhibitor project, dose response (AID 1902);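 further: lower survival reflects blocked streptokinase promoter driving kanamycin resistance gene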).

Structure (SMILES) | EC50
CC[C@@H](C)[C@H](NC(=O)OC(C)(C)C)c1nnc(S(=O)(=O)Cc2cc(C)ccc2C)o1 | 9.66 µM
CCCCCCCCOC(=O)c1c(CSC(=N)N)n(C)c2cc(Br)c(OC(C)=O)cc12 | 2.83 µM
CCCCNC(=O)c1cn(CC(C)C)c(=O)c2c1c1ccccc1n2C | 9.02 µM
Cc1ccc(F)c(NC(=O)/C(C#N)=C(\O)c2ccc(C(C)(C)C)cc2)c1 | 6.33 µM
COc1ccc(C(=O)c2coc3c2C(=O)C(=O)c2ccccc2-3)cc1 | 5.65 µM
CCS(=O)(=O)N1Cc2ccccc2CC1C(=O)Nc1nnc(SCc2ccc(C#N)cc2)s1 (stereo unspecified) | 8.26 µM
Cc1nn(-c2ccccc2)c2sc(C(=O)N3CCc4ccccc4C3)cc12 | 4.16 µM
COc1cc([N+](=O)[O-])cc(/C=N/NC(=O)C(C)Nc2cccc(C)c2)c1O (stereo unspecified) | 8.83 µM
CCOC(=O)C(=NC(C)(C)C)NNc1cc(Cl)ccc1Cl | 2.9 µM
Cc1ccc(NC2=C/C(=N\S(=O)(=O)c3cccs3)c3ccccc3C2=O)c(C)c1 | 1.66 µM
CC[C@H]1OC(=O)[C@H](C)[C@@H](O[C@H]2C[C@@](C)(OC)[C@@H](O)[C@H](C)O2)[C@H](C)[C@@H](O[C@@H]2O[C@H](C)C[C@H](N(C)C)[C@H]2O)[C@](C)(O)C[C@@H](C)C(=O)[C@H](C)[C@@H](O)[C@]1(C)O | < 0.06 µM
COc1cc(OC)c([C@H]2C=C(C)[C@H]3C[C@@H]2C3(C)C)c(OC)c1 | 2.6 µM
N#Cc1ccc(C(=O)Nc2nc(SCc3ccc(Cl)cc3)n[nH]2)cc1 | 1.52 µM
CN(C(=S)NC(=O)c1ccccc1)C1CCCCC1 | > 15 µM (inactive)
FC(F)(F)c1cccc(NC(=S)NNC(=S)Nc2cccc(C(F)(F)F)c2)c1 | 0.804 µM
O=C(O)c1ccc(N2CCCCS2(=O)=O)cc1 | > 15 µM (inactive)
COc1ccc(Nc2ncnc3scc(-c4ccc(OC)cc4)c23)cc1 | > 15 µM (inactive)
Cc1ccccc1OCCCCc1c(C)n[nH]c1C | 7.37 µM
CCOc1cc(-c2cc(-c3ccc(NC(C)=O)cc3)nc(N)c2C#N)ccc1O | 0.919 µM
c1ccc(-c2cc(-c3ccncc3)nc3ccc4ccccc4c23)cc1 | 2.21 µM
Cc1ccc(S(=O)(=O)N(C)CC(=O)N2CC(C)OC(C)C2)cc1 (stereo unspecified) | > 15 µM (inactive)
CC(C)(CN=C1NS(=O)(=O)c2ccccc21)CNC(=O)c1ccccc1 | > 15 µM (inactive)
O=C(N/N=C/c1c(O)n(Cc2ccco2)c(=O)[nH]c1=O)c1ccccc1O | 2.81 µM
CC1Oc2cc3oc4c(O)c(O)ccc4c(=O)c3c(O)c2C1(C)C (stereo unspecified) | 5.89 µM
CCN1/C(=C/C(C)=C/c2sc3ccccc3[n+]2CC)Sc2ccccc21 | 2.03 µM
COc1ccccc1/C=C/c1ccc2cccc(O)c2n1 | 1.18 µM

Structure (SMILES) | EC50
Cc1nn(C(=O)c2cccnc2)c(C)c1Sc1ccc(Br)cc1 | 4.36 µM
CCCCNc1c(-c2ccc(-c3ccc(C(C)=O)cc3)c(OC)c2)nc2cnccn12 | 5.58 µM
CCCCNc1c(-c2ccc(SC3CCCCC3)cc2)nc2ccccn12 | 3.87 µM
O=C(NC(=S)Nc1ccc(N2CCOCC2)c(Cl)c1)c1cccs1 | 9.89 µM
O=C(c1cccs1)N1N=C(c2ccccc2)CC1c1ccccc1 (stereo unspecified) | 6.41 µM
CCCCCCCCCCOC(=O)Cn1c(COc2ccc(C)cc2)[n+](C)c2ccccc21 | 5.67 µM
Oc1ccccc1/C=N/NC(=S)NC1CC2C=CC1C2 (stereo unspecified) | 5.69 µM
COc1ccc(-n2nc(C(=O)c3cccs3)cc(-c3nc4ccccc4[nH]3)c2=N)cc1 | 1.2 µM
CCOC(=O)c1c(-c2ccc(C)o2)csc1NC(=O)COC(=O)c1ccc(NC(N)=O)cc1 | 2.53 µM
CCc1ccc(NC(=O)c2ccc(F)c(S(=O)(=O)NCC3COc4ccccc4O3)c2)cc1 (stereo unspecified) | 5.34 µM
Cn1nnnc1SCC(=O)Nc1nc(-c2ccccc2)c(-c2ccccc2)o1 | 7.27 µM
Cc1cc(C(F)F)nn1CC(=O)NC1C(=O)N2C(C(=O)O)=C(CSc3nnnn3C)CSC12 (stereo unspecified) | < 0.06 µM
CC(C)=CCc1c(-c2ccc(O)cc2O)oc2cc3c(c(O)c2c1=O)C=CC(C)(C)O3 | 1.58 µM
CC(C)N1CCc2c(sc(NC(=O)CCS(=O)(=O)c3ccccc3)c2C#N)C1 | > 15 µM (inactive)
CC1(C)S[C@@H]2[C@H](NC(=O)COc3ccccc3)C(=O)N2C1C(=O)OCC1CCCCC1 (stereo partly specified) | 8 µM
CCC1CCCCN1c1cc(C)nc2cc(-c3cccc(C)c3)nn12 (stereo unspecified) | 6.59 µM
CCc1nc2c3cnn(-c4cc(Cl)ccc4C)c3ncn2n1 | 12.8 µM
C[N+](C)(C)c1ccc(/C=N/Nc2nc(Cl)c(C#N)c(Cl)c2Cl)cc1 | > 15 µM (inactive)
CCCCC(=O)NC(c1ccc(Cl)cc1Cl)c1ccc2cccnc2c1O (stereo unspecified) | 1.97 µM
Cc1cc(C)c(C(=O)Nc2ccc(Br)c(C(F)(F)F)c2)c(C)c1 | 2.79 µM
O=C(C1CCCCC1)N1CCC(c2nc3c(nnn3Cc3c(F)cccc3Cl)c(=O)[nH]2)CC1 | 3.79 µM
CC(C)CN1C(=S)SC(C)(C)C1n1oc(=O)n(-c2ccc(Cl)cc2)c1=O (stereo unspecified) | 4.33 µM
Cc1nnc(SCC2=C(C(=O)O)N3C(=O)C(NC(=O)Cn4ncc(Cl)c4C)C3SC2)s1 (stereo unspecified) | < 0.06 µM
COc1ccc(NC(=O)c2c[nH]n3c(=O)cc(C4CCN(C(=O)OC(C)(C)C)CC4)nc23)cc1Cl | 3.8 µM
CCC(CO)Nc1ncnc2c1cnn2-c1ccc(OC)cc1 (stereo unspecified) | > 15 µM (inactive)
